Experimental findings from patent US11649255B2, “Indazoles as hematopoietic progenitor kinase 1 (HPK1) inhibitors and methods using same” (1st Biotherapeutics, Inc., priority 2020, dated 2023) are described below.

Chain of recombinant human HPK1 (Q92918 whole entry): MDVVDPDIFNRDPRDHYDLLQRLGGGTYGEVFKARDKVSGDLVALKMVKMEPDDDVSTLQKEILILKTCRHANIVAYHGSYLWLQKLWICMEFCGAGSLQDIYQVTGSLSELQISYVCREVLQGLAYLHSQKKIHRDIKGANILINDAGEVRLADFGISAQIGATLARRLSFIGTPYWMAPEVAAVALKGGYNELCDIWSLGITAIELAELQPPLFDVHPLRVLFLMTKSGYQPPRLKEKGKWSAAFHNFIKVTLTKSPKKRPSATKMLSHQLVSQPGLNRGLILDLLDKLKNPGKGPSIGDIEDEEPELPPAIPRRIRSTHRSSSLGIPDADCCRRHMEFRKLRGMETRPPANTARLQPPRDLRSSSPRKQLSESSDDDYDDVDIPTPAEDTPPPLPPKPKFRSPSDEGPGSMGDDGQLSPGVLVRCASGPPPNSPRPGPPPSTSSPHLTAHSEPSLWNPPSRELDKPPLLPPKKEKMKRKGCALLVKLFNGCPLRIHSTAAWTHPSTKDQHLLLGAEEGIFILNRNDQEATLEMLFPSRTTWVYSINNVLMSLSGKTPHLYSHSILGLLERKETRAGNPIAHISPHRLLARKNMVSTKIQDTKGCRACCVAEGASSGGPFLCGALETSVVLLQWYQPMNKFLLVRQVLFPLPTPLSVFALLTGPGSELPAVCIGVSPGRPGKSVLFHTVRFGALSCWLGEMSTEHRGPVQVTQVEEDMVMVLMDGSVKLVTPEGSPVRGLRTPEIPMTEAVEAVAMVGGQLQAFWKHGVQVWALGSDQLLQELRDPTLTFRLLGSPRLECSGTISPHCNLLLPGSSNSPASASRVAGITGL

This assay addresses recombinant human HPK1 (Homo sapiens (Human), UniProt Q92918). Kind of assay: HPK1 kinase assay (ADP-Glo). The format is biochemical. As to conditions: 25 μM ATP, MBP substrate. An outline of the steps:
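Activity was read as ADP formed, detected by ADP-Glo luminescence after the reaction of 5 ng recombinant human HPK1 with MBP and ATP (stocks 0.5 μg/μl and 25 μM) for 40 min at 30 °C. Buffer was Tris pH 7.5 with MgCl2, BSA and DTT, with compound in 0.5% DMSO. IC50 came from inhibition curves.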
(In ADP-Glo the light output rises with the ADP produced.)
Usually IC50 stands for the midpoint of a concentration-inhibition curve. Turning to `O=C(Nc1cc2cc(-c3c(Cl)ccc4[nH]ncc34)ccn2n1)[C@@H]1C[C@@H]1F` [Example 448, (1S,2S)-N-(5-(5-chloro-1H-indazol-4-yl)pyrazolo[1,5-a]pyridin-2-yl)-2-fluorocyclopropane-1-carboxamide], the IC50 was less than 0.1 µM.

Consider `O=C(Nc1cc2cc(-c3c(Cl)c(F)c(O)c4[nH]ncc34)ccn2n1)[C@@H]1C[C@@H]1F` [Example 528, (1S,2S)-N-(5-(5-chloro-6-fluoro-7-hydroxy-1H-indazol-4-yl)pyrazolo[1,5-a]pyridin-2-yl)-2-fluorocyclopropane-1-carboxamide], for which the half-maximal inhibitory concentration (IC50) was less than 0.1 µM. Then `CSc1c(F)cc2[nH]ncc2c1-c1ccn2nc(NC(=O)[C@H]3C[C@@H]3F)cc2c1` [Example 571, (1R,2S)-2-fluoro-N-(5-(6-fluoro-5-(methylthio)-1H-indazol-4-yl)pyrazolo[1,5-a]pyridin-2-yl)cyclopropane-1-carboxamide], with less than 0.1 µM. To `CCOc1c(F)c(Cl)c(-c2ccc3nc(NC(=O)[C@@H]4C[C@@H]4F)sc3c2)c2cn[nH]c12` [Example 81, (1S,2S)-N-(6-(5-chloro-7-ethoxy-6-fluoro-1H-indazol-4-yl)benzo[d]thiazol-2-yl)-2-fluorocyclopropane-1-carboxamide] belongs less than 0.1 µM; to `CN(c1c(F)c(Cl)c(-c2ccn3nc(NC(=O)[C@@H]4C[C@@H]4F)cc3c2)c2cn[nH]c12)C1CCC1` [Example 620, (1S,2S)-N-(5-(5-chloro-7-(cyclobutyl(methyl)amino)-6-fluoro-1H-indazol-4-yl)pyrazolo[1,5-a]pyridin-2-yl)-2-fluorocyclopropane-1-carboxamide], less than 0.1 µM; to `O=C(Nc1cc2cc(-c3c(Cl)c(F)c(NCC4CC4)c4[nH]ncc34)ccn2n1)[C@@H]1C[C@@H]1F` [Example 654, (1S,2S)-N-(5-(5-chloro-7-((cyclopropylmethyl)amino)-6-fluoro-1H-indazol-4-yl)pyrazolo[1,5-a]pyridin-2-yl)-2-fluorocyclopropane-1-carboxamide], less than 0.1 µM. Take `O=C(O)c1c(F)c(Cl)c(-c2ccc3nc(NC(=O)[C@@H]4C[C@@H]4F)sc3c2)c2cn[nH]c12` [Example 121, 5-chloro-6-fluoro-4-(2-((1S,2S)-2-fluorocyclopropane-1-carboxamido)benzo[d]thiazol-6-yl)-1H-indazole-7-carboxylic acid]: the IC50 was more than 1 µM. In the case of `CN(C)C(=O)c1ccn(-c2c(F)c(Cl)c(-c3ccc4nc(NC(=O)[C@@H]5C[C@@H]5F)cn4c3)c3cn[nH]c23)c1` [Example 400, 1-(5-chloro-6-fluoro-4-(2-((1S,2S)-2-fluorocyclopropane-1-carboxamido)imidazo[1,2-a]pyridin-6-yl)-1H-indazol-7-yl)-N,N-dimethyl-1H-pyrrole-3-carboxamide], the IC50 is less than 0.1 µM.

`CCN(C)c1c(F)c(SC)c(-c2ccc3nc(NC(=O)[C@@H]4C[C@@H]4F)sc3n2)c2cn[nH]c12` [Example 218, (1S,2S)-N-(5-(7-(ethyl(methyl)amino)-6-fluoro-5-(methylthio)-1H-indazol-4-yl)thiazolo[5,4-b]pyridin-2-yl)-2-fluorocyclopropane-1-carboxamide]: the concentration for half-maximal inhibition (IC50) is less than 0.1 µM. To `NC(=O)c1c(F)c(Cl)c(-c2ccc3nc(NC(=O)[C@@H]4C[C@@H]4F)sc3c2)c2cn[nH]c12` [Example 135, 5-chloro-6-fluoro-4-(2-((1S,2S)-2-fluorocyclopropane-1-carboxamido)benzo[d]thiazol-6-yl)-1H-indazole-7-carboxamide] belongs more than 1 µM. Then `Cc1c(F)c(N(C)C)c2[nH]ncc2c1-c1ccn2nc(NC(=O)[C@@H]3C[C@@H]3F)cc2c1` [Example 490, (1S,2S)-N-(5-(7-(dimethylamino)-6-fluoro-5-methyl-1H-indazol-4-yl)pyrazolo[1,5-a]pyridin-2-yl)-2-fluorocyclopropane-1-carboxamide], with less than 0.1 µM; and `NC(=O)c1c(F)c(Cl)c(-c2ccn3nc(NC(=O)[C@@H]4C[C@@H]4F)cc3c2)c2cn[nH]c12` [Example 576, 5-chloro-6-fluoro-4-(2-((1S,2S)-2-fluorocyclopropane-1-carboxamido)pyrazolo[1,5-a]pyridin-5-yl)-1H-indazole-7-carboxamide], with more than 1 µM. Then `CCCCC(=O)Nc1nc2ccc(-c3c(C)ccc4[nH]ncc34)cc2s1` [Example 9, N-(6-(5-methyl-1H-indazol-4-yl)benzo[d]thiazol-2-yl)pentanamide], with more than 1 µM. On to `CCc1c(F)c(SC2(C#N)CC2)c2[nH]ncc2c1-c1ccn2nc(NC(=O)[C@@H]3C[C@@H]3F)cc2c1` [Example 608, (1S,2S)-N-(5-(7-((1-cyanocyclopropyl)thio)-5-ethyl-6-fluoro-1H-indazol-4-yl)pyrazolo[1,5-a]pyridin-2-yl)-2-fluorocyclopropane-1-carboxamide], for which the IC50 is less than 0.1 µM.

Consider `Cc1ccc2[nH]ncc2c1-c1ccc2nc(NC(=S)C3CC3)sc2c1` [Example 32, N-(6-(5-methyl-1H-indazol-4-yl)benzo[d]thiazol-2-yl)cyclopropanecarbothioamide], for which the IC50 was 0.101 to 0.5 µM. Then `CNC(=O)OCCSc1c(F)c(C)c(-c2ccn3nc(NC(=O)[C@@H]4C[C@@H]4F)cc3c2)c2cn[nH]c12` [Example 546, 2-((6-fluoro-4-(2-((1S,2S)-2-fluorocyclopropane-1-carboxamido)pyrazolo[1,5-a]pyridin-5-yl)-5-methyl-1H-indazol-7-yl)thio)ethyl methylcarbamate], with less than 0.1 µM. To `CC(=O)N(C)C(C)c1c(F)c(Cl)c(-c2ccc3nc(NC(=O)[C@@H]4C[C@@H]4F)cn3c2)c2cn[nH]c12` (stereo partly drawn) [Example 412, (1S,2S)-N-(6-(5-chloro-6-fluoro-7-(1-(N-methylacetamido)ethyl)-1H-indazol-4-yl)imidazo[1,2-a]pyridin-2-yl)-2-fluorocyclopropane-1-carboxamide] belongs less than 0.1 µM.

On to `CSc1c(F)cc(-c2ccn3nc(NC(=O)[C@@H]4C[C@@H]4F)cc3c2)c2cn[nH]c12` [Example 589, (1S,2S)-2-fluoro-N-(5-(6-fluoro-7-(methylthio)-1H-indazol-4-yl)pyrazolo[1,5-a]pyridin-2-yl)cyclopropane-1-carboxamide], for which the half-inhibitory concentration (IC50) is less than 0.1 µM. To `COC1CN(c2c(F)c(Cl)c(-c3ccn4nc(NC(=O)[C@@H]5C[C@@H]5F)cc4c3)c3cn[nH]c23)C1` [Example 624, (1S,2S)-N-(5-(5-chloro-6-fluoro-7-(3-methoxyazetidin-1-yl)-1H-indazol-4-yl)pyrazolo[1,5-a]pyridin-2-yl)-2-fluorocyclopropane-1-carboxamide] belongs less than 0.1 µM; to `CC(NC(=O)C1CCC1)c1c(F)c(Cl)c(-c2ccc3nc(NC(=O)[C@@H]4C[C@@H]4F)cn3c2)c2cn[nH]c12` (stereo partly drawn) [Example 430, N-(1-(5-chloro-6-fluoro-4-(2-((1S,2S)-2-fluorocyclopropane-1-carboxamido)imidazo[1,2-a]pyridin-6-yl)-1H-indazol-7-yl)ethyl)cyclobutanecarboxamide], less than 0.1 µM; to `COc1ccc2[nH]ncc2c1-c1ccc2nc(NC(=O)C3CC3)cn2c1` [Example 224, N-(6-(5-methoxy-1H-indazol-4-yl)imidazo[1,2-a]pyridin-2-yl)cyclopropanecarboxamide], 0.101 to 0.5 µM.

Turning to `C=CC(=O)Nc1c(F)c(Cl)c(-c2ccc3nc(NC(=O)[C@@H]4C[C@@H]4F)sc3c2)c2cn[nH]c12` [Example 72, (1S,2S)-N-(6-(7-acrylamido-5-chloro-6-fluoro-1H-indazol-4-yl)benzo[d]thiazol-2-yl)-2-fluorocyclopropane-1-carboxamide], the half-inhibitory concentration (IC50) was in the range of 0.101 to 0.5 µM.

For the compound `CCN(C)C(=O)c1c(F)c(Cl)c(-c2ccc3nc(NC(=O)[C@@H]4C[C@@H]4F)cn3c2)c2cn[nH]c12` [Example 341, 5-chloro-N-ethyl-6-fluoro-4-(2-((1S,2S)-2-fluorocyclopropane-1-carboxamido)imidazo[1,2-a]pyridin-6-yl)-N-methyl-1H-indazole-7-carboxamide], the half-maximal inhibitory concentration (IC50) was less than 0.1 µM. Turning to `O=C(Nc1cn2cc(-c3c(Cl)c(F)c(Br)c4[nH]ncc34)ccc2n1)[C@@H]1C[C@@H]1F` [Example 261, (1S,2S)-N-(6-(7-bromo-5-chloro-6-fluoro-1H-indazol-4-yl)imidazo[1,2-a]pyridin-2-yl)-2-fluorocyclopropane-1-carboxamide], the 50% inhibitory concentration (IC50) was less than 0.1 µM. To `CN(C)C(=O)c1c(F)cc2[nH]ncc2c1-c1ccc2nc(NC(=O)[C@@H]3C[C@@H]3F)sc2c1` [Example 145, 6-fluoro-4-(2-((1S,2S)-2-fluorocyclopropane-1-carboxamido)benzo[d]thiazol-6-yl)-N,N-dimethyl-1H-indazole-5-carboxamide] belongs more than 1 µM; to `CC(=O)N(CC#N)c1c(F)c(Cl)c(-c2ccn3nc(NC(=O)[C@@H]4C[C@@H]4F)cc3c2)c2cn[nH]c12` [Example 615, (1S,2S)-N-(5-(5-chloro-7-(N-(cyanomethyl)acetamido)-6-fluoro-1H-indazol-4-yl)pyrazolo[1,5-a]pyridin-2-yl)-2-fluorocyclopropane-1-carboxamide], less than 0.1 µM. To `CC(C)c1c(F)cc2[nH]ncc2c1-c1ccn2nc(NC(=O)[C@@H]3C[C@@H]3F)cc2c1` [Example 462, (1S,2S)-2-fluoro-N-(5-(6-fluoro-5-isopropyl-1H-indazol-4-yl)pyrazolo[1,5-a]pyridin-2-yl)cyclopropane-1-carboxamide] belongs less than 0.1 µM; to `CCNC(=O)C(C)c1c(F)c(Cl)c(-c2ccc3nc(NC(=O)[C@@H]4C[C@@H]4F)cn3c2)c2cn[nH]c12` (stereo partly drawn) [Example 445, (1S,2S)-N-(6-(5-chloro-7-(1-(ethylamino)-1-oxopropan-2-yl)-6-fluoro-1H-indazol-4-yl)imidazo[1,2-a]pyridin-2-yl)-2-fluorocyclopropane-1-carboxamide], less than 0.1 µM; to `O=C(Nc1cn2cc(-c3c(C4CC4)ccc4[nH]ncc34)ccc2n1)C1CC1` [Example 244, N-(6-(5-cyclopropyl-1H-indazol-4-yl)imidazo[1,2-a]pyridin-2-yl)cyclopropanecarboxamide], 0.101 to 0.5 µM.
